Measurements published in PubChem BioAssay AID1996.
In brackets after ≈: the same amount, converted by molar mass.

Settings: buffer; pH 7.4; 200.0 µM

| SMILES | solubility kinetic |
| --- | --- |
| CSc1ccc(Cl)c(C(=O)NCCCn2ccnc2)c1 | > 46.5 µg/mL |
| FC(F)(F)c1ccc2c(c1)NCC1CCCN21 (centres undefined) | 13 µg/mL (≈ 53.7 µM) |
| CC(C)(C)c1ccc(C(=O)Nc2ccc(F)cc2)s1 | < 0.6 µg/mL |
| O=C(Nc1ccc2c(c1)OCO2)N1CCCc2ccccc21 | > 44.4 µg/mL |
| CCOCCCNC1=C(Cl)C(=O)c2ccccc2C1=O | 31.9 µg/mL (≈ 109 µM) |
| CNC(=S)N(CCc1c(C)[nH]c2ccc(Cl)cc12)Cc1cccnc1 | 46.2 µg/mL (≈ 124 µM) |
| CC(=O)c1ccc(S(=O)(=O)N2CCN(C)CC2)cc1 | > 42.4 µg/mL |
| O=C(O)c1cccc(S(=O)(=O)NCC2COc3ccccc3O2)c1 (centres undefined) | > 52.4 µg/mL |
| Cc1ccc(NC(=S)NC(=O)c2cncc(Br)c2)cc1Cl | 2.4 µg/mL (≈ 6.24 µM) |
| CSc1ncc(C(=O)Nc2ccccc2C)c(C)n1 | > 41 µg/mL |
| Cc1ccc(Cl)c(NC(=O)COC(=O)c2cc[n+]([O-])cc2)c1Cl | > 53.3 µg/mL |
| Cc1cc(C)n(CC(=O)N2CCc3ccccc32)c(=O)c1C#N | 7 µg/mL (≈ 22.8 µM) |
| Cc1ccc(NC(=O)COC(=O)C2CCC(=O)N2)c([N+](=O)[O-])c1 (centres undefined) | > 48.2 µg/mL |
| CCCCNC(=S)Nc1ccc(Oc2ccccc2)cc1 | 6.5 µg/mL (≈ 21.6 µM) |
| COc1ccc(C(CNc2ncnc3sccc23)N(C)C)cc1OC (centres undefined) | 35.5 µg/mL (≈ 99 µM) |
| COc1cc(NC(=S)N(C)C)c(OC)cc1Cl | > 41.2 µg/mL |
| Cc1cnc(NC(=O)CC2CCCC2)s1 | 13.3 µg/mL (≈ 59.3 µM) |
| CCOc1ncccc1C(=O)OCC(=O)NCCCc1ccccc1 | > 51.4 µg/mL |
| O=C(O)CC1(CC(=O)NCc2ccc(Cl)cc2)CCCCC1 | > 48.6 µg/mL |
| COc1cc(-c2c(C#N)c(N)nc3[nH]c(=S)[nH]c(=O)c23)ccc1O | 11.7 µg/mL (≈ 34.3 µM) |

| SMILES | solubility kinetic |
| --- | --- |
| O=C(Nc1ccc2ccccc2n1)Nc1cccs1 | < 0.2 µg/mL |
| O=C1N=C(N2CCOCC2)S/C1=C\c1cccs1 | > 42.1 µg/mL |
| COc1ccccc1C(C#N)c1cccc(Cl)n1 (centres undefined) | 38 µg/mL (≈ 147 µM) |
| CCOC(=O)N1CCN(CC(=O)Nc2sccc2C#N)CC1 | > 48.4 µg/mL |
| NS(=O)(=O)c1cc2c(cc1C(F)(F)F)NC(Cc1ccccc1)NS2(=O)=O (centres undefined) | > 63.2 µg/mL |
| Cn1c(CCC(=O)O)nc2cc(S(=O)(=O)N3CCCC3)ccc21 | > 50.6 µg/mL |
| Cc1cccc(NS(=O)(=O)c2ccc3c(c2)CCC(=O)N3)c1 | > 47.5 µg/mL |
| COc1cc([N+](=O)[O-])ccc1NC(=O)C1C2C=CC(C2)C1C(=O)O (centres undefined) | > 49.8 µg/mL |
| O=c1[nH]cc(NCCc2ccccc2)c(=O)[nH]1 | > 34.7 µg/mL |
| CC(Cl)C(=O)Nc1c2c(nn1-c1ccccc1)CSC2 (centres undefined) | > 46.2 µg/mL |
| CCN(C(=O)CSc1nc(C)nc2sc3c(c12)CCC3)C1CCS(=O)(=O)C1 (centres undefined) | 5.4 µg/mL (≈ 12.7 µM) |
| CC(=O)Nc1ccc(NC(=O)C(C)OC(=O)CCSc2ccccc2Cl)cc1 (centres undefined) | 10.2 µg/mL (≈ 24.2 µM) |
| O=C(O)/C=C/c1ccc(S(=O)(=O)Nc2ccc3[nH]c(=O)[nH]c3c2)cc1 | > 53.9 µg/mL |
| C=CCN1C(=O)C(CC(=O)NCC)SC1=Nc1ccccc1CC (centres undefined) | 44.3 µg/mL (≈ 128 µM) |
| COC(=O)CCc1nc2cc(Cl)ccc2n(Cc2ccccc2)c1=O | 1.4 µg/mL (≈ 3.92 µM) |
| CN1CC(C(=O)Nc2ccc(F)c(Cl)c2)CC1=O (centres undefined) | > 40.6 µg/mL |
| Cc1nc2ccccc2c(=O)n1-c1ccc(Br)cn1 | > 47.4 µg/mL |
| c1ccc2[nH]c(CCCc3nc4ccccc4[nH]3)nc2c1 | 29.7 µg/mL (≈ 107 µM) |
| Cc1ccc(Nc2nc(-c3cccs3)cs2)nc1 | 0.8 µg/mL (≈ 2.93 µM) |
| Cc1ccc(F)cc1NC(=O)N1c2ccccc2NC(=O)CC1C (centres undefined) | 42.7 µg/mL (≈ 130 µM) |

| SMILES | solubility kinetic |
| --- | --- |
| COc1ccc(NC(=O)CS(=O)c2cccc(Cl)c2)cc1 (centres undefined) | > 48.6 µg/mL |
| COc1ccc(Cl)cc1NC(=S)Nc1ccc(Cl)cn1 | 0.2 µg/mL (≈ 0.609 µM) |
| CC1(C)Cc2c(sc3nc(SCC(=O)O)nc(N)c23)CO1 | > 48.8 µg/mL |
| CCc1nc2sc3ccccc3c(=O)c2c(=O)n1Cc1ccc(OC)cc1 | 0.8 µg/mL (≈ 2.11 µM) |
| COc1ccc(Nc2ncnc3ccc([N+](=O)[O-])cc23)c(OC)c1 | 10.5 µg/mL (≈ 32.2 µM) |
| CC(=O)NS(=O)(=O)c1ccc(NC(=O)C(C)NS(=O)(=O)/C=C/c2ccccc2)cc1 (centres undefined) | 63.3 µg/mL (≈ 140 µM) |
| Cc1sc(NC(=O)C2=COCCO2)c(C#N)c1C | 5.9 µg/mL (≈ 22.3 µM) |
| Cc1ccc2c(c1)Cc1nc3ccccc3nc1-2 | 1.9 µg/mL (≈ 8.18 µM) |
| Cc1[nH]c2ccccc2c1-c1csc(N)n1 | 28.1 µg/mL (≈ 123 µM) |
| COc1ccc(S(=O)(=O)N2CCOCC2)cc1NC(=O)CC(C)c1ccccc1 (centres undefined) | 9.9 µg/mL (≈ 23.7 µM) |
| CCOP(=O)(OCC)C(Nc1ccc(F)cc1)c1ccccc1 (centres undefined) | > 50.6 µg/mL |
| CN(C)CC/C=C1/c2ccccc2CS(=O)(=O)c2ccccc21 | 47.6 µg/mL (≈ 145 µM) |
| O=S(=O)(Nc1ccc(Cl)cn1)c1cccs1 | > 41.2 µg/mL |
| CSc1nc2ccc(C)cc2c(=O)n1-c1cccnc1 | 8.1 µg/mL (≈ 28.6 µM) |
| O=C(NC1=NCCS1)C1CC(=O)N(c2ccc(Cl)cc2)C1 (centres undefined) | > 48.6 µg/mL |
| CC(CCc1ccccc1)NCC(O)COc1ccccc1 (centres undefined) | 43.1 µg/mL (≈ 144 µM) |
| C[C@H](NS(=O)(=O)c1ccc(F)cc1)C(=O)OCC(=O)c1c(N)n(C)c(=O)n(C)c1=O | > 66.4 µg/mL |
| Cc1cc(NC(=O)COc2ccc(F)c(Cl)c2)no1 | 4.8 µg/mL (≈ 16.9 µM) |
| Nc1nnc(SCC(=O)NC2CCCCCCC2)s1 | > 45.1 µg/mL |
